The values below come from PMC11251039, “Harnessing cholesterol uptake of malaria parasites for therapeutic applications” (EMBO Molecular Medicine, 2024).

Data set [1] concerns asexual P. falciparum CAM3.II (Resistant). The experiment in a line: P. falciparum asexual growth inhibition assay, resistant strain. Format: cell-based. The note with it: Plasmodium falciparum; 72 h, CAM3.II (Resistant); read-out: IC50, P. falciparum asexual growth inhibition. Here is the method:
(§1) P. falciparum asexual parasite assays commenced with ring-stage parasites at 1% parasitaemia and 1% haematocrit. 200 nM chloroquine (Sigma C6628) or artesunate (Sigma A3731) was used as a no-growth control. DNA replication (indicating growth) was measured at the specified time using SYBR Safe DNA Gel Stain (Invitrogen 33102) and a fluorescence microplate reader (Smilkstein et al, [2004]; Spry et al, [2013]).
(§2) Appendix Fraser/Curtis et al.
(§3) Growth and Viability Inhibition Assays:
(§4) Plasmodium falciparum Growth Inhibition Assays:
(§5) P. falciparum parasites were maintained under routine culture conditions in red blood cells and RPMI 1640-Hepes with Glutamax, supplemented with 10 mM D-glucose, 480 μM hypoxanthine, 20 μg/mL gentamicin, 0.375% (w/v) AlbuMAXTM II (Thermo Fisher 11021029), and 2.5% v/v heat-inactivated human serum (17). Cultures were maintained at 37 °C […]
(§6) Growth inhibition was investigated according to methods described by Smilkstein et al. (19) with modifications by Spry et al. (20). […] 200 nM chloroquine (Sigma C6628) or artesunate (Sigma A3731) was used as a positive control to determine background fluorescence. The parasitaemia of a culture containing predominantly ring stage parasites was counted by Giemsa smear. […] Fluorescence was detected at 490 nm excitation/ 520 nm emission on a FLUOstar Optima fluorescence plate reader (BMG Labtech).

The test system of data set [2] is asexual P. falciparum CAM3.IIREV (Susceptible). Kind of data set: P. falciparum asexual growth inhibition assay, revertant strain. Format: cell-based. The note with it: Plasmodium falciparum, 72 h, read-out: IC50, P. falciparum asexual growth inhibition. On the procedure: as §1, §2, §3, §4, §5, §6
Data set [3] relates to P. falciparum CAM3.IIREV ring stages (0–3 h post invasion). The experiment in a line: Plasmodium falciparum ring stage survival assay, susceptible revertant strain. It is filed as cell-based. Here is the method:
(§7) Following tight synchronisation using sorbitol and Percoll® floatation, ring stage CAM3.II and CAM3.IIREV parasites (0–3 h post invasion) at 1% parasitaemia and 2% haematocrit were incubated with 700 nM of compounds or solvent-only controls for exactly 6 h, before removing the drug, thoroughly washing in RPMI with HEPES, and returning to culture conditions for a further 66 h. Some cells were treated with 700 nM artesunate for 72 h as a no-growth control. DNA replication (indicating growth) was measured at the specified time using SYBR Safe DNA Stain. Microscope slide smears of each condition were stained with 10% v/v Giemsa and examined under a light microscope (×1000 magnification); with ‘viable’ (morphologically normal) and ‘non-viable’ (morphologically aberrant; vacuolated or pyknotic) parasites distinguished according to standard protocol (Witkowski et al, [2013]). Images were captured using a Leica ICC50 camera, with a resolution of 76 nm per pixel, and cropped from larger images using Fiji ImageJ.
as §2
(§8) Cells were detached from a flask using 0.25% Trypsin with 0.2 g/L EDTA (Sigma T4049) and washed with culture media containing no phenol red. Cells were incubated with a serial dilution of each compound, or media/DMSO alone. The protein synthesis inhibitor cycloheximide (Sigma 01810) at 10 µg/mL was used as a positive control to determine background absorbance. 5,000 cells were seeded in each well. After 96 hours, 0.45 mg/mL methylthiazolyldiphenyl-tetrazolium bromide (MTT; Sigma M2128) was added and incubated for a further two hours, before mixing 1.1:1 with 10% w/v sodium dodecyl sulfate (SDS) to solubilise crystals and freezing the plate at -18 °C to stop the assay. Plates were defrosted at room temperature and absorbance was read at 570 nm in an Infinite M1000 pro plate reader […]
(§9) Plasmodium falciparum Ring Stage Survival Assay
(§10) Ring stage survival assays were conducted according to standard protocols with some modifications (27, 28). CAM3.11 and CAM3.11REV parasites were sorbitol synchronised twice, 12 hours apart, and then incubated for a further 30 hours until the majority of the parasites were mature schizonts (with clearly separated nuclei). Pelleted RBCs were incubated at 37 °C with heparinised RPMI for 15 minutes, and then centrifuged over 75% Percoll® in PBS for 15 minutes at 1,000 g. Mature schizonts were collected, washed with warm RPMI, and cultured for exactly three hours with fresh uRBCs and culture media. After 3 hours, the cultures were sorbitol synchronised and incubated in duplicate with 700 nM of artesunate, PAYb076a, GGA5, HJB8a53, a DMSO solvent-only control or media alone for exactly six hours, before removing the drug, washing in RPMI, and returning to culture conditions. Samples of each cell suspension were transferred to a -18 °C freezer at the start of the assay (time = 0) or treated for the entire 72 hours with 700 nM artesunate to determine background fluorescence under no-growth conditions. After a further 66 hours of incubation (totalling 72 hours), cells were […]
(§11) resuspended, and a sample from each well was transferred to a fresh plate and frozen at -18 °C.
(§12) Microscope slide smears were made using the remaining cells and stained with 10% v/v Giemsa. Plates were thawed and SYBR Safe DNA Gel Stain (final concentration 1/10,000) diluted in lysis buffer (as above) was added for DNA detection at 490 nm excitation / 520 nm emission on a FLUOstar Optima fluorescence plate reader. Parasite proliferation and viability were also assessed using Giemsa-stained smears examined under a light microscope (1,000× magnification); with ‘viable’ and ‘non-viable’ (vacuolated or pyknotic) parasites distinguished according to standard protocol. Images were captured using a Leica ICC50 camera, with a resolution of 76 nm per pixel.
(§13) Growth inhibition data were normalised by subtracting background fluorescence, […]

On the set-up of data set [4]: method as in Morris et al, 2011. The note with it: ref Morris et al, 2011; cited from earlier work.
For data set [5], the system named is P. falciparum CAM3.II ring stages (0–3 h post invasion). The experiment in a line: Plasmodium falciparum ring stage survival assay, resistant strain. Format: cell-based. Here is the method: as §7, §2, §8, §9, §10, §11, §12, §13
The test system of data set [6] is asexual P. falciparum 3D7 wild-type parasites. The experiment in a line: P. falciparum asexual growth inhibition assay (SYBR Safe DNA replication). Format: cell-based, Plasmodium falciparum. The settings on record: Plasmodium falciparum; 72 h, 3D7 (Susceptible); read-out: IC50, P. falciparum asexual growth inhibition. The essentials: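 Sorbitol-synchronised ring-stage cultures at 1% parasitaemia and 1% haematocrit were exposed to 2-fold compound dilutions at 37 °C under microaerophilic conditions for 24, 48 or 72 h. Growth was read by SYBR Safe fluorescence of freeze-thaw lysates, with 200 nM chloroquine or artesunate defining background.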

The structures appear in SMILES notation. Values joined by “and” are separate entries in the source; they are usually repeats but may differ in a detail not shown here. Equal entries are not always repeated.

Broadly, the IC50 is the midpoint of a concentration-inhibition curve. Regarding `C[C@H]1[C@H](OC(=O)CCC(=O)O)O[C@@H]2O[C@@]3(C)CC[C@H]4[C@H](C)CC[C@@H]1[C@@]24OO3` [Artesunate, artesunate, reference compound], the figures for the IC50 in data set [1], in data set [2] and in data set [6] were 6.7 nM, 5.7 nM and 6.7 nM, respectively. The “Parasite morphology in Giemsa-stained smears” value was “only morphologically aberrant parasites were present” in data set [3] (700 nM, 6 h treatment, 66 h further growth, CAM3.IIREV susceptible); “a combination of morphologically normal parasites (green arrows) and morphologically aberrant pyknotic or vacuolated forms” in data set [5] (700 nM, 6 h treatment, 66 h further growth, CAM3.II resistant). In addition, the “Ring stage survival, individual data points (Figure 4C)” value in data set [3] (CAM3.11REV, replicate experiments) is -6.969 and -6.239 and -6.353 and -8.044; in data set [5] (CAM3.11, replicate experiments), 35.31 and 54.58 and 24.97 and 17.6. In data set [4], the Half-life in blood is 30 to 90 min. Moreover, in data set [5] (700 nM, 6 h treatment, 66 h further growth, CAM3.II), the “Proportion of resistant parasites surviving treatment (DNA replication)” value is given as ~ 30%.
